# Measurements published in paper PMC7999182, “Interaction of Remdesivir with Clinically Relevant Hepatic Drug Uptake Transporters” (Pharmaceutics, 2021).
# Columns and labels:
# OATP1B3 = tested on: OATP1B3; parameters: method as in earlier work; conditions: prototypic substrate not stated; cited from earlier work
# OATP1B1*1b = target: T1, OATP1B1*1b (Homo sapiens, UniProt Q9Y6L6, N130D); test: Remdesivir uptake into HEK cells stably expressing OATP1B1*1b vs vector control; assay type: in vitro ADME; conditions: 10 min
# T1 construct: expressed in transfected cells
# T1 sequence (Q9Y6L6 1-691 N130D): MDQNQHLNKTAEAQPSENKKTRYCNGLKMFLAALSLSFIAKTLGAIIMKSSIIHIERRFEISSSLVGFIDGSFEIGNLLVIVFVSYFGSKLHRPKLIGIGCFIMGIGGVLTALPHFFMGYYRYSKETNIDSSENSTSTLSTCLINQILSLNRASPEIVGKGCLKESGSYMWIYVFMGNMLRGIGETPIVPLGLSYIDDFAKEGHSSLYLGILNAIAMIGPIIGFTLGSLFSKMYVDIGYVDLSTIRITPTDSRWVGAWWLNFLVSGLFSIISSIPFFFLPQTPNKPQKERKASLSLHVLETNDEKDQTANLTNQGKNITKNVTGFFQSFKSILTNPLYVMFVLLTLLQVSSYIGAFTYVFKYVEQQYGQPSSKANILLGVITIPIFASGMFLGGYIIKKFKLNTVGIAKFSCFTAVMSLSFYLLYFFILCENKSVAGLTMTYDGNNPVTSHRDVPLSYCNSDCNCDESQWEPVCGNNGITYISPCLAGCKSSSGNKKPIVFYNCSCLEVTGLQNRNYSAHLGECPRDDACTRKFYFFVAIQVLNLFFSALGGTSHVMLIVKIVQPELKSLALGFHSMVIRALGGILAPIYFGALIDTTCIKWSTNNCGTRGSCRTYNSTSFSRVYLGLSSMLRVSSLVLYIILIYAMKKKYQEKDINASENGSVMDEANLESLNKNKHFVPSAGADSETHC
# Text: (§1) Generation, cultivation and characterization of human embryonic kidney (HEK) cells stably expressing OATP1B1 refseq (=OATP1B1*1a), OATP1B1*1b, OATP1B1*5 and OATP1B1*15 [18], OATP1B3 [19], OATP2B1 [13] and OCT1 [20] have been described previously. OATP1B1 cells were cultivated in minimal essential medium (Life Technologies, Paisley, UK) and OATP1B3, OATP2B1 and OCT1 cells were cultivated in Dulbecco’s modified Eagle medium (Sigma, Darmstadt, Germany). Cultivation media were supplemented with 10% fetal calf serum, 100 U/mL penicillin and 100 µg/mL streptomycin. Cells were grown at 37 °C and 5% CO2. Functionality of the cells was confirmed by measuring uptake of prototypic substrates (see Section 2.3 and supplementary material).
# (§2) Uptake assays were conducted at 37 °C according to previously described methods. For this, cells were seeded in 24-well plates (320,000 cells/well) and cultured for 2 days. Cells were then incubated for a further 24 h in culture medium with 5 mM butyrate (OATP1B3, OATP2B1, OCT1) or 10 mM butyrate (OATP1B1) to increase protein levels of recombinant transporters. […]
# (§3) Remdesivir was determined by UHPLC-MS-MS analysis on an Agilent 1290 infinity UHPLC system coupled to an Agilent 6495B triple quadrupole mass spectrometer (Agilent, Waldbronn, Germany) similar to a recently published method. […]
# OCT1 = target: T2, OCT1 (Homo sapiens, UniProt O15245); test: Remdesivir uptake into HEK cells stably expressing OCT1 vs vector control; assay type: in vitro ADME; conditions: 5 µM remdesivir, 10 min, transporter-expressing vs control HEK cells
# T2 construct: expressed in transfected cells
# T2 sequence (O15245 1-554): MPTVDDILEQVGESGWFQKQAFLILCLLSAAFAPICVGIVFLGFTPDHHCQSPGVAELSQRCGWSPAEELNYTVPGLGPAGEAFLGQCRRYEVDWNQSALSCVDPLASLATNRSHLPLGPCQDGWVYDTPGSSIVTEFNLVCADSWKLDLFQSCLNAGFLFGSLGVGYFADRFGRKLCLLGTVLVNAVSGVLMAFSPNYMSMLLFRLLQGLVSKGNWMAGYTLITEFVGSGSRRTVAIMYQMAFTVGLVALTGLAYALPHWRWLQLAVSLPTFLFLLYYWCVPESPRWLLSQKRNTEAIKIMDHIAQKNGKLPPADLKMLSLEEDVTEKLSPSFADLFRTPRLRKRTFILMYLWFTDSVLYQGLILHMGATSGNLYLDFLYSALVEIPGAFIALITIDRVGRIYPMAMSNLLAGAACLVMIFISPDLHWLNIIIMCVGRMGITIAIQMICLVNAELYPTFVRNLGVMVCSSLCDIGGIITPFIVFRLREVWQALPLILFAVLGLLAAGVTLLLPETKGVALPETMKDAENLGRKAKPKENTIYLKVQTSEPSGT
# Text: as §1, §2, §3
compound,measurement,setting,value
CCC(CC)COC(=O)[C@H](C)N[P@](=O)(OC[C@H]1O[C@@](C#N)(c2ccc3c(N)ncnn23)[C@H](O)[C@@H]1O)Oc1ccccc1 [Remdesivir],IC50,OATP1B3,2100 nM
same,Accumulation vs vector-transfected control cells,OATP1B1*1b; 5 µM remdesivir,moderately higher
same,Accumulation vs vector-transfected control cells,OATP1B1*1b; 50 µM remdesivir,moderately higher
same,Remdesivir uptake ratio,OCT1,1.2
